The text below walks through data of article PMC4861933, “Structural and biochemical characterisation of Archaeoglobus fulgidus esterase reveals a bound CoA molecule in the vicinity of the active site” (Scientific Reports, 2016).

Usually Km stands for the concentration of substrate that gives half-maximal velocity.

Test [1] deals with T1, AF-Est2 (Archaeoglobus fulgidus, UniProt O28735).
T1 construct: gene AF_1537; full-length, no stop codon, C-terminal 6xHis tag (pET24d, plasmid pWUR365), E. coli BL21-CodonPlus(DE3)-RIPL; tag kept
T1 sequence (O28735 entry or part of it): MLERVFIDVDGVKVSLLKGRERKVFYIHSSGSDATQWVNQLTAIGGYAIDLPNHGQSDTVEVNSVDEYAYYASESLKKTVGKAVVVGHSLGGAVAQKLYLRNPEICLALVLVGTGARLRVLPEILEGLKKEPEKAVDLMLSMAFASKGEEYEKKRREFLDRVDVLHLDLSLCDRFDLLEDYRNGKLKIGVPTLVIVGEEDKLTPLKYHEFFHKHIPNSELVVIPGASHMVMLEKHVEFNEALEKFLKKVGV
The experiment in a line: p-nitrophenol release at […] nm, microplate, Michaelis-Menten fit. The class given is biochemical. The note with it: 50 mM Tris-HCl pH 7.5, 30 °C; enzyme carries co-purified CoA.

For test [2], the target named is T1, AF-Est2. The experiment in a line: X-ray crystal structure, […] Å. The class given is binding. The conditions noted are these: co-purified from expression host, not added; full occupancy; groove near active site, pantetheine in alcohol pocket.
Test [3] addresses T1, AF-Est2. The test is described as follows: phenol red pH-indicator assay at […] nm, Michaelis-Menten fit. The class given is biochemical. The conditions noted are these: 1 mM HEPES pH 8.0; kcat is that at 70 °C (one KM printed for 70, 50 and 30 °C).

In the case of `CC(=O)Oc1ccc([N+](=O)[O-])cc1` [C2, pNP-acetate], the Km at AF-Est2 [1] was 620 ± 10 µM.
In the case of `CCC(=O)Oc1ccc([N+](=O)[O-])cc1` [C3, pNP-propionate], the Michaelis-Menten constant (Km) at AF-Est2 [1] was found to be 254 ± 8 µM.
Still for that read-out and setting: in the case of `CCCC(=O)Oc1ccc([N+](=O)[O-])cc1` [C4, pNP-butyrate] it was 92 ± 3 µM; in that of `CCCCC(=O)Oc1ccc([N+](=O)[O-])cc1` [C5, pNP-valerate], 19 ± 1 µM.
For the compound `CCCCCCCC(=O)Oc1ccc([N+](=O)[O-])cc1` [C8, pNP-caprylate], at AF-Est2 [1], the Km stood at 120 ± 10 µM.
`CC(C)(COP(=O)(O)OP(=O)(O)OC[C@H]1O[C@@H](n2cnc3c(N)ncnc32)[C@H](O)[C@@H]1OP(=O)(O)O)[C@@H](O)C(=O)NCCC(=O)NCCS` [CoA]: on AF-Est2 [2], the “X-ray crystal structure, 1.4 Å” value is given as “confirmed the full occupancy of this CoA ligand in the AF-Est2 structure”.
As to `COC(=O)c1ccc(C)cc1` [methyl p-toluate], the Michaelis-Menten constant (Km) on AF-Est2 [3] worked out at 1.5 ± 0.1 mM.
